Measurements taken from patent US8501689B2, “Growth factor-mimicking peptides and uses thereof” (Caragen Co., Ltd., priority 2008, dated 2013).
Where no end group is shown, it is not given here.

Key:
Assay type in all cases: cell-based
HaCaT keratinocytes = test: SRB colorimetric assay, growth of HaCaT keratinocytes; settings: 10 ng/ml or 1,000 ng/ml, 72 hr, serum-free medium, absorbance at 590 nm, FIG. 3a
Protocol: (§1) In order to evaluate four peptides prepared in Preparation Examples 1-2 whether they have similar activities of growth factor-1, SRB (Sulforhodamine B; Sigma-Aldrich) colorimetric assay was carried out using HaCaT keratinocytes and NIH3T3 fibroblasts according to Rizzino et al. method (Rizzino, et al. Cancer Res., 48: 4266 (1988)).
(§2) HaCaT keratinocytes (The Korean Cell Line Bank) and NIH3T3 fibroblasts (The Korean Cell Line Bank) were cultured in 250 ml-flasks containing EMEM (Eagle's minimal essential media; Gibco, U.S.A.) supplemented with 10% FBS (fetal bovine serum). Cells cultured were treated with 0.25% trypsin solution to detach cells from the bottom of culture flasks and centrifuged to collect cell pellets. After cells were resuspended in EMEM not containing FBS, its aliquot (4×10^3 cells)was added to each well of 96-well plates and cultured under 7% CO2 for 24 hr at 37° C. After 24-hr culture, the medium was changed with a fresh medium not containing serum and cells were incubated with human aFGF (NIBSC, UK) or four peptides synthesized (10 ng/ml or 1,000 ng/ml) dissolved in water and 10% DMSO for 72 hr under the same conditions as described above. After removing supernatants, cells were washed once using PBS (phosphate buffered saline) and incubated with SRB solution. Cells were sufficiently washed with PBS and observed under a microscope to find cell viability. In addition, absorbance at 590 nm was measured to analyze cell proliferation.
FIG. 3a and FIG. 3b represent the analysis data for growth of keratinocytes and fibroblasts, respectively. FIG. 4 represents the growth pattern of keratinocytes and fibroblasts observed under microscope after 72 hr-treatment with peptides.

fibronectin = test: Fibronectin ELISA in HaCaT keratinocytes; settings: HaCaT incubated with peptides for 72 hr, FIG. 5b
Protocol: (§3) HaCaT keratinocytes cultured for 48 hr were incubated with the peptides of the present invention for 72 hr. The levels of procollagen and fibronectin, indicators to show the improvement in skin wrinkle, were examined. The quantification was performed using Procollagen ELISA kit (Takara, Japan) and Fibronectin ELISA kit (CHEMICON, USA).

NIH3T3 fibroblasts = test: SRB colorimetric assay, growth of NIH3T3 fibroblasts; settings: NIH3T3, 10 ng/ml or 1,000 ng/ml, 72 hr, serum-free medium, absorbance at 590 nm, FIG. 3b
Protocol: as §1
as §2, with “Cells were sufficiently washed with PBS and observed under a microscope to find cell viability.” left out, “proliferation. […]” for “proliferation.”

procollagen = test: Procollagen ELISA in HaCaT keratinocytes; settings: HaCaT incubated with peptides for 72 hr, FIG. 5a
Protocol: as §3

Substance | growth of keratinocytes (HaCaT keratinocytes) | level of fibronectin in keratinocytes (fibronectin) | growth of fibroblasts (NIH3T3 fibroblasts) | level of procollagen in keratinocytes (procollagen)
Ac-YKSKKGGWTH [peptide 1] | much better effects on growth of keratinocytes | strikingly facilitate the production of procollagen | excellent effects on growth of fibroblasts | 
DSHTQYCFHGT [compound 3, corresponds to amino acids 10-20 of TGF-α] | much better effects on growth of keratinocytes |  |  | 
GYVGVRCEAADLDA [compound 4, corresponds to amino acids 38-49 of TGF-α] | much better effects on growth of keratinocytes | strikingly facilitate the production of procollagen |  | 
YISKKHAGKNWF [corresponds to amino acids 111-122 of aFGF] |  |  | excellent effects on growth of fibroblasts | remarkably promote the production of procollagen
